From US20030166703A1, “Method of treatment” (priority 2000, published 2003)

Tested on: male Lister Hooded rats
Experiment: Rat Conditioned Emotional Response (CER) Model of Anxiety
Assay type: in vivo
Details: 10.0 mg/kg po, 40 min pre-test, hydrochloride; for Suppression Ratio (± SEM): SR 0 = complete suppression, 0.5 = absence of fear; for Rate of responding per minute ±SEM “Dur” period / Rate of responding per minute ±SEM “Pre” period: collapsed across two test trials
From the text: Sixty male Lister Hooded rats with a mean free-feeding weight of 472 g were used. Rats were housed in cages of four and were fed a restricted diet designed to maintain rats at 85% of their free-feeding body weight. A 12:12 light/dark cycle was in effect in the colony room and the rats were trained and tested during the light part of the cycle.
These chambers were housed in outer sound and light attenuating shells equipped with a ventilation fan which also helped to mask external noise. A single operant lever was positioned on the left side of the front panel of the operant chamber, approximately 2 cm above the grid floor. Coulbourn animal test cage grid floor shockers (E13-14) were used to deliver shock (0.4 mA, 0.5 s) to the grid floors (model E-10-10SF). […] A houselight (4.0 mA, 28V) was positioned on the front wall of the chamber, above the food magazine, approximately 1.0 cm below the ceiling.
Once the rats had been placed on a restricted feeding regime, magazine training began. On each of the first four days of training each rat received a 30 minute session of magazine training during which pellets were delivered on a variable interval (VI) 30 s schedule. […] These sessions lasted until either 30 minutes expired or 30 food pellets were delivered. […] On the VI 90 s schedule pellets could be earned by pressing the lever, on average, once every 90 s. The houselight was off throughout all of the training sessions.
CER training sessions were approximately 60 minutes long and usually conducted on 5 days per week. During these sessions, food pellets continued to be available on an VI 90 s schedule as before. However, the rats were now presented with two two-minute long periods of houselight illumination. The first light presentation occurred approximately 20 minutes after the start of the session (range 15-25 minutes) and the second light presentation occurred approximately 20 minutes after the first light presentation (range 15-25 minutes). Light presentations were occasionally followed by a 0.5 second 0.4 mA footshock. In a given session, footshock could follow neither, one, or both of the light presentations. On average rats would receive one shock presentation per session. The rate of lever-pressing during each of the light presentations (the ‘during’ or ‘dur’ period) and the rate of lever-pressing in the two minute interval preceding each light presentation (the ‘pre’ period) was recorded.
Once a reliable SR was observed, occasional test sessions occurred. Test sessions were identical to training session except that footshock was never delivered following the first light presentation. Tests occurred no more frequently than once per week and a baseline training session was always carried out before each test session.
The data were analysed with a mixed within-subject (trials) and between-subjects (drug treatment) analysis of variance (ANOVA). The ANOVA was conducted separately on the pre and during light response rates and on the suppression ratios. Significant interactions were followed by one-way analysis of variance on the data collected for each trial. Significant group effects were analysed using post-hoc Dunnett t-tests.

CNC1=Nc2ccc(Cl)cc2C(c2ccccc2)=[N+]([O-])C1.Cl [Chlordiazepoxide, chlordiazepoxide hydrochloride]
Suppression Ratio (± SEM): 0.37 ± 0.05 | Suppression Ratio (± SEM) (listed as CDP): significant increase in SR | Rate of responding per minute ±SEM “Dur” period: 13.7 ± 3.1 per minute | Rate of responding per minute ±SEM “Pre” period: 21.8 ± 2.9 per minute | Rate of responding per minute ±SEM “Dur” period (listed as CDP): significant increase in dur responding | Rate of responding per minute ±SEM “Pre” period (listed as chlordiazepoxide): significant increase in pre responding
